Values quoted from earlier work as cited in patent US20230390178A1, “Skin Care Compositions and Methods of Use” (Colgate-Palmolive Company, priority 2022, published 2023).

Log P: −2.5
SMILES: O=C1O[C@H]([C@@H](O)CO)C(O)=C1O[C@H]1O[C@H](CO)[C@@H](O)[C@H](O)[C@H]1O [ascorbyl glucoside]
